Measurements published in US20100099613A1, “PEPTIDES FOR INDUCING A CTL AND/OR HTL RESPONSE TO HEPATITIS C VIRUS” (GENIMMUNE, priority 2004, published 2010).
Where a SMILES comes first, the peptide text is derived from it.

Experiments:
[1] = tested on: Balb/c (H2^bxd) mice; assay: Activity of HTL epitopes, ELISPOT of CD4+ cells, pooled samples; format: in vivo, mouse; details: Table 27, 2 experiments
Protocol: (§1) The experiments to test the immunogenicity of HLA-DR peptides differs slightly from example 6 in that complete Freund's is used as the adjuvant. Peptides are tested in either DRB1*0401-Tg mice or surrogate mice such as Balb/c and CBA. In this particular example, HLA-restricted peptide responses are analyzed in pooled samples.

[2] = tested on: DRB1*0401-Tg mice (DR4 Tg); assay: as above; format: in vivo, mouse; details: Table 26, 2 experiments
Protocol: as §1

Row | Compound | Immunized SFC/10^6 ± St Error [1] [SFC/10^6] | Immunized SFC/10^6 ± St Error [2] [SFC/10^6]
1 | CC[C@H](C)[C@H](NC(=O)CNC(=O)[C@@H](NC(=O)[C@H](C)N)C(C)C)C(=O)N[C@@H](Cc1ccccc1)C(=O)N[C@@H](CCCNC(=N)N)C(=O)N[C@@H](C)C(=O)N[C@@H](C)C(=O)N[C@H](C(=O)N[C@@H](CS)C(=O)N[C@H](C(=O)N[C@@H](CCCNC(=N)N)C(=O)NCC(=O)N[C@H](C(=O)N[C@@H](C)C(=O)O)C(C)C)[C@@H](C)O)C(C)C | 1330.4 ± 111.9 | 
2 | CC(C)C[C@H](NC(=O)[C@@H](NC(=O)[C@@H](NC(=O)[C@@H](N)CC(C)C)C(C)C)C(C)C)C(=O)N[C@@H](C)C(=O)N[C@H](C(=O)N[C@@H](C)C(=O)N[C@H](C(=O)N1CCC[C@H]1C(=O)N1CCC[C@H]1C(=O)NCC(=O)N[C@@H](CO)C(=O)N[C@H](C(=O)N[C@H](C(=O)N[C@H](C(=O)O)C(C)C)[C@@H](C)O)C(C)C)[C@@H](C)O)[C@@H](C)O (H-LVVLATATPPGSVTV-OH; N-terminus and C-terminus assumed) |  | 111.7 ± 42.3
